Data on six compounds can be found in patent US6331555A, “Treatment of platelet derived growth factor related disorders such as cancers” (priority 1999, dated 2001).

For series [1], the system named is Platelet-derived growth factor-dependent tyrosine phosphorylation. The settings on record: intact cells; cited from earlier work.
Another series concerns A431 cells. As to conditions: cited from earlier work.
Series [2] deals with U1242 cells. In words: Cytotoxicity in U1242 cells, MTT. The series is classed as cell-based, human. As to conditions: Homo sapiens, read-out: CYTOXICITY MTT U1242 LD50; heading: CYTOXICITY MTT U1242 LD50. As for the experimental part:
(§1) The cytotoxicity of each drug was also determined. The cells were plated as described above. Following incubation with drug, cell survival was measured by an MTT assay as described by Mossman J. Immunol. Methods 65:55-63 (1983), or by measuring the amount of LDH released (Korzeniewski and Callewaert, J. Immunol. Methods 64:313 (1983); Decker and Lohmann-Matthes, J. Immunol. Methods 115:61 (1988) .

A further series deals with C6 cells. The series can be described thus: C6 SRB growth assay. The series is classed as cell-based, rat. As to conditions: Rattus norvegicus, C6; read-out: C6 SRB IC50. A general note: In SRB staining, fixed cells bind dye roughly in proportion to their protein.
Series [3] is described as follows: C6 glioma SC xenograft in mice. As to conditions: rat, in vivo, ip. The series is classed as in vivo. Here is the method: (§2) Cell lines were grown in appropriate medium (see Appendix 1). Cells were harvested at or near confluency with 0.05% Trypsin-EDTA and pelleted at 450×g for 10 min. Pellets were resuspended in sterile PBS or media (without FBS) to a particular concentration and the cells were implanted into the hindflank of mice. Tumor growth was measured over 3 to 6 weeks using venier calipers. Tumor volumes were calculated as a product of length×width×height unless otherwise indicated. P values were calculated using the Students' t-test.
(§3) C6 and SKOV-3(T) cells were grown in culture, as described in "cell growth" above, and implanted into the hind flank of a female Balb/c nu/nu mouse at 3×10^6 cells (for C6 experiments), or 1×10^7 cells (for SKOV-3 experiments) in […] of PBS on Day 0. U87MG, U118MG or U373MG human glioblastoma cells (obtained from the ATCC), or A4312 were also implanted into athymic mice. […] Tumors were measured using venier calipers and tumor volume was calculated as a product of tumor length, width, and height.

The next series deals with C6 glioma cells. In words: C6 glioma SC xenograft in mice. The series is classed as in vivo. Here is the method:
as §2, §3

A further series deals with T1, PDGF-R (U1242) (Homo sapiens, UniProt P09619).
T1 construct: U1242 (PDGF-β receptor); host or cells: U1242 MG glioma cells
T1 sequence (P09619 33-1106): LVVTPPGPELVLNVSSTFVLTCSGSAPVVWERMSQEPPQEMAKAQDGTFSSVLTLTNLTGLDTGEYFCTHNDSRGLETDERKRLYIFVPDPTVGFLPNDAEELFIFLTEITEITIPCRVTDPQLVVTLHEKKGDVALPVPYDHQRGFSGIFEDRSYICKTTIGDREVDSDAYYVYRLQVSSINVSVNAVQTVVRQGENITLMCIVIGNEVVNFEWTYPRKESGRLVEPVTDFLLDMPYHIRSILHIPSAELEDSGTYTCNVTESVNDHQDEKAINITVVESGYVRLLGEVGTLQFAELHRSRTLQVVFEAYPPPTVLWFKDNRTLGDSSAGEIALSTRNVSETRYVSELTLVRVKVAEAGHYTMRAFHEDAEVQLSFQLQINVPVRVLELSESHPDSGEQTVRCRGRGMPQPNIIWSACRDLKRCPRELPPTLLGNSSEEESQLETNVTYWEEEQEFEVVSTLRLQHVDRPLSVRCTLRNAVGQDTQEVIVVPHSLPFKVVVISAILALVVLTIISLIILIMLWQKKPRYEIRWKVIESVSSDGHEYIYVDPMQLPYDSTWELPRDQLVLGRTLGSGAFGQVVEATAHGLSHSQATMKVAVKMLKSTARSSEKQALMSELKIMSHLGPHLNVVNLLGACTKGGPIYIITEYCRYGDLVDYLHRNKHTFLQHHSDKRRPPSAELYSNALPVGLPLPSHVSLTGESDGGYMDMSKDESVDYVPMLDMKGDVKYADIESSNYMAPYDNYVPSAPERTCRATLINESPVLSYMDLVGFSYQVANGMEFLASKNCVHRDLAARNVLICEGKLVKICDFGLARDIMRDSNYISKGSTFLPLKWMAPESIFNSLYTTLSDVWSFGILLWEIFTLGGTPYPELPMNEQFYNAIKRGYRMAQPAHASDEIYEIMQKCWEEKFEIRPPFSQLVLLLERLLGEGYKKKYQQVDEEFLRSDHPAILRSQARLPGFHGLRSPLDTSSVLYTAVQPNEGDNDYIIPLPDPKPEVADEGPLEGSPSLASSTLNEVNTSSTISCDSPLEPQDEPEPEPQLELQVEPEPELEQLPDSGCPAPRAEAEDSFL
The series can be described thus: U1242 kinase (PDGF-R activity). The series is classed as cell-based. In a few lines: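 For ELISA, cells were held overnight in 0.5% serum, then treated with compound for 2 h at 37 °C in serum-free medium. Lysate phosphotyrosine was detected with polyclonal anti-phosphotyrosine antibody. In western blots, cells were stimulated with ligand for 7 min at room temperature and probed with anti-phosphotyrosine (1:3000).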

The next series in a line: LD10. As to conditions: in vivo.
The target of series [4] is PDGFR (Homo sapiens, UniProt P09619). The series can be described thus: PDGF-stimulated receptor phosphorylation in U1242 cells, ELISA. Also noted: U1242 (PDGF-β receptor); host or cells: U1242 MG glioma cells. The series is classed as cell-based. The settings on record: 100 ng/ml PDGF-BB; read-out: ELISA P-TYR U1242 IC50. In a few lines:
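U1242 MG cells in 0.5% serum were pretreated with compound for 2 h at 37° C, then stimulated 5–10 min with PDGF-BB (100 ng/ml). Lysates captured on anti-PDGF receptor-coated plates; receptor phosphotyrosine detected by anti-phosphotyrosine ELISA with POD/ABTS read-out at 410 nm.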
In general terms: An ELISA detects its analyte on a solid surface through an enzyme-linked reagent.

Series [5] relates to U1242 cells. The series can be described thus: Cytotoxicity in U1242 cells, LDH. The series is classed as cell-based. The settings on record: Homo sapiens, read-out: CYTOXICITY LDH U1242 LD50; heading: CYTOXICITY LDH U1242 LD50. As for the experimental part:
as §1

Series [6] deals with PDGFR. In words: Receptor tyrosine kinase inhibition, PDGFR. The series is classed as cell-based. The settings on record: W = done in Western assay; read-out: PDGFR IC50 (W). The procedure, abridged: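 Serum-starved cells treated with test compound for 2 hr at 37° C, then receptor phosphotyrosine measured by ELISA with anti-phosphotyrosine antibody and goat anti-rabbit IgG. Western blots used 7 min ligand stimulation at room temperature, vanadate-containing lysis and anti-phosphotyrosine immunodetection with ECL.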

For the next series, the system named is PDGF receptor. As to conditions: cited from earlier work.
The next series relates to PDGF α-receptor. As to conditions: high concentrations; cited from earlier work.
The test system of a further series is PDGF β-receptor. The settings on record: cited from earlier work.
[7] abbreviates: W = done in Western assay, read-out: U1242 KINASE IC50 (W).

Several values for one entry are separate records, joined by “and”; a condition that tells them apart may be missing. Identical values can stand only once. Like-named read-outs stand apart in the source and are kept apart here. Bounds are passed on as bounds.

PDGFR (Homo sapiens, UniProt P09619), sequence (P09619 33-1106): as above

For `CC(O)=C(C#N)C(=O)Nc1ccc(C(F)(F)F)cc1` [A77 1726], in series [1], the “Platelet-derived growth factor-dependent tyrosine phosphorylation” value is recorded as “inhibited by A77 1726 in intact cells at concentrations similar to EGF-dependent phosphorylation”. Besides, in the series with A431 cells, the “growth of A431 cells” value was “inhibited growth of A431 cells”.
What is called IC50 is the concentration needed to halve the response being measured. Usually mortality stands for the percentage killed. High values mean a strong lethal effect, low ones a weak lethal effect. `O=C(NN=Cc1ccc(O)c(O)c1)C(=O)Nc1cccc([N+](=O)[O-])c1` [Compound E15]: the CC50 with U1242 cells [2] was above 100 µM. The IC50 in the series with C6 cells is 4.4 µM; at PDGF-R (U1242) (setting [7]), 5 µM and 10 µM; on PDGF-R (U1242) (read-out: U1242 KINASE IC50) it was above 50 µM; on PDGFR [4], 5 µM. Also, in series [3] (15 mg/kg), the mortality at 336 h worked out at 0%. This compound also had a mortality at 360 h in series [3] (50 mg/kg) of 12.5%. The mortality at 192 h in [3] (100 mg/kg) stood at 100%. For the same compound, in the series with C6 glioma cells (Rattus norvegicus, C6 glioma, sc, at 15 mg/kg, read-out: C6 in vivo EFFICACY), the inhibition in vivo at 15 mg/kg worked out at 66%. For the same compound, in the series on C6 glioma cells (Rattus norvegicus, C6 glioma, sc, at 50 mg/kg, read-out: C6 in vivo EFFICACY), the inhibition in vivo at 50 mg/kg came out at 58%. The inhibition in vivo at 100 mg/kg in the series with C6 glioma cells (Rattus norvegicus, C6 glioma, sc, at 100 mg/kg, read-out: C6 in vivo EFFICACY) was found to be 0%. The same compound yielded an LD10 in the series “LD10” above 400 mg/kg.
Consider `COc1cc2nc(Cl)c(-c3ccccc3)cc2c(OC)c1OC` [Compound G11], for which the CC50 with U1242 cells [5] was 90 µM. The IC50 stood at 20 µM with PDGFR [6] and 15 µM at PDGFR [4].
In the case of `O=C(c1ccccc1)c1ccc2ncc(-c3ccccc3)nc2c1` [Compound G21], the CC50 in the series on U1242 cells [5] is above 100 µM. The half-maximal inhibitory concentration (IC50) in the series with C6 cells is above 12 µM; on PDGF-R (U1242) (setting [7]) it was 6 µM; at PDGF-R (U1242) (read-out: U1242 KINASE IC50), above 50 µM; at PDGFR [4], 6 µM. In series [3] (40 mg/kg), this compound came in with a mortality of 0%. In the series on C6 glioma cells (at 40 mg/kg), the “C6 in vivo EFFICACY” value is given as “no effect”. Besides, the LD10 in “LD10” is above 200 mg/kg.
Regarding `Cc1ccc(C(=O)Nc2ccc(S(=O)(=O)O)c3cc(S(=O)(=O)O)cc(S(=O)(=O)O)c23)cc1NC(=O)c1cccc(NC(=O)Nc2cccc(C(=O)Nc3cc(C(=O)Nc4ccc(S(=O)(=O)O)c5cc(S(=O)(=O)O)cc(S(=O)(=O)O)c45)ccc3C)c2)c1` [suramin], the receptor binding result in the series with PDGF receptor was “interfere with receptor binding”.
In the case of neomycin, in the series with PDGF α-receptor, the “binding of PDGF-BB to the α-receptor” value was “inhibited the binding of PDGF-BB to the α-receptor”. In addition, the “binding of PDGF-BB to the β-receptor” value in the series with PDGF β-receptor is “did not inhibit binding to the β-receptor”.
